Reference: patent US7342026B2, “Substituted quinolines for the treatment of protozoa and retrovirus co-infections” (priority 2001, dated 2008)
In brackets after ≈: the same amount, converted by molar mass.

System: amastigotes of Leishmania amazonensis
Assay: Amastigotes of Leishmania amazonensis in infected macrophages (leishmanicidal activity)
Type: cell-based
Conditions: 100% inhibitory concentration; intracellular amastigotes in BALB/c macrophages, 30 hours after addition
Procedure: The strain of Leishmania amazonensis is maintained by successive passages in “nude” mice (nu/nu). The amastigotes are isolated from the lesions developed on the footpads, and purified according to the method described by Antoine et al. (Parasitology, 1989, 99: 1).
The leishmanicidal activity of the quinolines is determined 30 hours after addition of the solutions of substituted quinolines. It is based on a more or less large, or even complete, decrease, firstly, in the size of the parasitophorous vacuoles and, secondly, in the number of live intracellular amastigotes.

Molecule | L. amazonensis IC100 [µg/mL]
C=Cc1ccc2ccccc2n1 [Quinoline 2, (2-quinolyl)ethylene] | 3.12
Br/C=C/c1ccc2ccccc2n1 [Quinoline 29, E-1-bromo-2-(2-quinolyl)-ethene] | 0.7812
O=C(O)/C=C/c1ccc2ccccc2n1 [Quinoline 19] | 12.5
BrC#Cc1ccc2ccccc2n1 [Quinoline 28] | 12.5
Cl/C=C/C#Cc1ccc2ccccc2n1 [Quinoline 24] | 10 to 25
OC/C=C/c1ccc2ccccc2n1 [Example 4, E-3-(2-quinolyl)prop-2-en-1-ol] | 25
CCCCCCCCC#Cc1ccc2ccccc2n1 [Quinoline 32] | 12.5
C[Si](C)(C)C#Cc1ccc2ccccc2n1 [Example 1, 2-(2-quinolyl)trimethylsilylacetylene] | 0.7812
CC(=O)Cc1ccc2ccccc2n1 [Quinoline 13] | 25
c1ccc2nc(CCc3ccc4c(c3)OCO4)ccc2c1 [Quinoline 34] | 50
CCCCC/C=C/c1ccc2ccccc2n1 [Quinoline 25] | 12.5
C/C=C/c1ccc2cccc(O)c2n1 [Quinoline 11] | 50
CC/C=C/c1ccc2ccccc2n1 [Quinoline 6, E-1-(2-quinolyl)butene] | 6.25
COC(=O)/C=C/C=C/c1ccc2ccccc2n1 [Quinoline 30] | 12.5
FC(Br)=Cc1ccc2ccccc2n1 [Quinoline 31] | 25
COC(=O)/C=C/c1ccc2cc(C)ccc2n1 [Quinoline 27] | 50

Same assay, conditions: 100% inhibitory concentration; intracellular amastigotes in BALB/c macrophages, 30 hours after addition; listed as 10

Molecule | L. amazonensis IC100 [µg/mL]
OC/C=C/c1ccc2ccccc2n1 [Quinoline 10] | 1.56

Same assay, conditions: comment on Table II

Molecule | activity on Leishmania amazonensis (in words)
CCCCC/C=C/c1ccc2ccccc2n1 [Quinoline 25] | advantageous activity

System: macrophages
Assay: Cytotoxicity on macrophages
Type: cell-based, BALB/c mice
Conditions: macrophages from BALB/c mice
Procedure: The macrophages, which will be used as host cells for the leishmania, are obtained after multiplication and differentiation of medullary precursors from BALB/c mice. This culture is prepared in the presence of supernatant from a conditioned line of fibroblasts L-929, and source of “Macrophage Colony Stimulating Factor”. After culturing for 5 days on a hydrophobic support, the adherent macrophages are recovered and then distributed in flat-bottomed 96-well plates for cell culture, in a proportion of 4×10^4 macrophages per well. The macrophages are then infected with purified amastigotes (4 parasites per macrophage) and incubated at 34° C. for 24 hours to allow development of parasitophorous vacuoles and multiplication of parasites. Under these conditions, more than 95% of the macrophages are infected.
The solutions of the substituted quinolines to be tested are prepared in DMSO before being added, at various concentrations, to the infected macrophage cultures.
The results obtained with the substituted quinolines, assigned Nos. 1, 2, 4, 6 to 11, 13 to 20, 23 to 34, 37 and 38 in Table I, are given in Table II below as regards their activity on the amastigotes of Leishmania amazonensis, of Leishmania donovani and of Leishmania infantum, and also their cytotoxicity with respect to the macrophages.

Molecule | Cytotoxicity on macrophages [µg/mL]
C=Cc1ccc2ccccc2n1 [Quinoline 2, (2-quinolyl)ethylene] | 6.25
Br/C=C/c1ccc2ccccc2n1 [Quinoline 29, E-1-bromo-2-(2-quinolyl)-ethene] | 3.12
O=C(O)/C=C/c1ccc2ccccc2n1 [Quinoline 19] | 12.5
BrC#Cc1ccc2ccccc2n1 [Quinoline 28] | 12.5
OC/C=C/c1ccc2ccccc2n1 [Example 4, E-3-(2-quinolyl)prop-2-en-1-ol] | 25
CCCCCCCCC#Cc1ccc2ccccc2n1 [Quinoline 32] | 12.5
C[Si](C)(C)C#Cc1ccc2ccccc2n1 [Example 1, 2-(2-quinolyl)trimethylsilylacetylene] | 6.25
CC(=O)Cc1ccc2ccccc2n1 [Quinoline 13] | 25
c1ccc2nc(CCc3ccc4c(c3)OCO4)ccc2c1 [Quinoline 34] | 25
CCCCC/C=C/c1ccc2ccccc2n1 [Quinoline 25] | 25
C/C=C/c1ccc2cccc(O)c2n1 [Quinoline 11] | 50
CC/C=C/c1ccc2ccccc2n1 [Quinoline 6, E-1-(2-quinolyl)butene] | 25
COC(=O)/C=C/C=C/c1ccc2ccccc2n1 [Quinoline 30] | 25
FC(Br)=Cc1ccc2ccccc2n1 [Quinoline 31] | 25

Same assay, conditions: macrophages from BALB/c mice; listed as 10

Molecule | Cytotoxicity on macrophages [µg/mL]
OC/C=C/c1ccc2ccccc2n1 [Quinoline 10] | 6.25

System: amastigotes of Leishmania donovani (MHOM/ET/67/L82)
Assay: microbe, parasite or virus in culture
Type: cell-based
Conditions: Leishmania donovani, Peritoneal macrophage, in Mus musculus, 48 h, read-out: L. donovani IC50
Description: (§1) b) Tests on Amastigotes of Leishmania donovani and Leishmania infantum
(§2) The Leishmania donovani and Leishmania infantum strains are maintained by successive passages in golden hamsters. The amastigotes are isolated from the spleens of the infected hamsters and brought into contact with the purified macrophages.
(§3) Twenty-four hours after intraperitoneal injection of Balb/c mice with a 2% starch solution, the peritoneal macrophages of these mice are collected, washed in Dulbecco PBS and then distributed in Lab-tek® culture chambers, in a proportion of 4×10^4 cells per 100 μl per well in RPMI-1640 medium supplemented with 10% of FCS and antibiotics. After 24 hours at 37° C. in a humid atmosphere (5% CO2), the macrophages are brought into contact with purified amastigotes (3 parasites per macrophage) in a final volume of 200 μl for 4 hours. The medium is then removed in order to eliminate the extracellular parasites, and replaced with 100 μl of fresh medium.
(§4) Twenty-four hours after the beginning of infection, the solutions of substituted quinolines prepared as described in paragraph a) above are added and the leishmanicidal activity is determined after 48 hours by counting the number of parasites still alive in the fixed and Giemsa-stained cells.

Molecule | IC50 [µg/mL]
C=Cc1ccc2ccccc2n1 [Quinoline 2, (2-quinolyl)ethylene] | 1.2 to 2.8 (≈ 7.73 to 18 µM)

System: amastigotes of Leishmania infantum (IPZ229/1/89)
Assay: microbe, parasite or virus in culture
Type: cell-based
Conditions: Leishmania infantum, Peritoneal macrophage, in Mus musculus, 48 h, read-out: L. infantum (IPZ229/1/89) IC50
Description: as §1, §2, §3, §4

Molecule | IC50 [µg/mL]
C=Cc1ccc2ccccc2n1 [Quinoline 2, (2-quinolyl)ethylene] | 1.3 (≈ 8.38 µM)

System: amastigotes of Leishmania infantum (MHOM/MA(BE)67)
Assay: Amastigotes of Leishmania infantum (MHOM/MA(BE)67) in peritoneal macrophages
Type: cell-based
Conditions: Leishmania infantum, Peritoneal macrophage, in Mus musculus, 48 h, read-out: L. infantum (MHOM/MA (BE) 67) IC50

Molecule | IC50 [µM]
C=Cc1ccc2ccccc2n1 [Quinoline 2, (2-quinolyl)ethylene] | > 32
Br/C=C/c1ccc2ccccc2n1 [Quinoline 29, E-1-bromo-2-(2-quinolyl)-ethene] | 2

Same assay, conditions: comment on Table II

Molecule | activity on the MHOM/MA(BE)67 strain of Leishmania infantum (in words)
CCCCC/C=C/c1ccc2ccccc2n1 [Quinoline 25] | less active

System: amastigotes of Trypanosoma cruzi (Tulahuen strain)
Assay: Amastigotes of Trypanosoma cruzi in peritoneal macrophages
Type: cell-based
Conditions: Balb/c peritoneal macrophages, 4 days; read-out: T. cruzi (amastigotes) IC50
Procedure: c) Tests on Amastigotes of Trypanosoma cruzi
Peritoneal macrophages from Balb/c mice are collected, washed in Dulbecco PBS and then distributed in 96-well plates in a proportion of 3×10^4 cells per 100 μl and per well, in RPMI-1640 medium supplemented with 10% FCS and antibiotics.
After 24 hours at 37° C., 10^5 trypomastigotes are added with serial 2-fold dilutions of the various substituted quinolines. The cultures are then incubated at 37° C. for 4 days in a humid atmosphere (5% CO2-95% air). After fixing, and then staining with Giemsa, the antiparasitic activity is assessed by counting the extracellular trypomastigotes and the intracellular amastigotes.

Molecule | IC50 [µM]
CC(O)Cc1ccc2cccc(O)c2n1 (stereo not shown) [Quinoline 22] | 16
BrC(Br)=Cc1ccc2ccccc2n1 [Quinoline 36] | 21
BrC#Cc1ccc2ccccc2n1 [Quinoline 28] | > 32
Cc1ccc2nc(C=O)ccc2c1 [Quinoline 5] | > 32
OC/C=C/c1ccc2ccccc2n1 [Quinoline 10] | 4
CC(=O)Cc1ccc2ccccc2n1 [Quinoline 13] | > 32
c1ccc2nc(CCc3ccc4c(c3)OCO4)ccc2c1 [Quinoline 34] | 15
CCCCC/C=C/c1ccc2ccccc2n1 [Quinoline 25] | 11
CCC(O)c1ccc2ccccc2n1 (stereo not shown) [Quinoline 17] | > 32
CC(O)Cc1ccc2ccccc2n1 (stereo not shown) [Quinoline 15] | > 32
C/C=C/c1ccc2cccc(O)c2n1 [Quinoline 11] | 19
CC/C=C/c1ccc2ccccc2n1 [Quinoline 6, E-1-(2-quinolyl)butene] | > 32
COC(=O)/C=C/C=C/c1ccc2ccccc2n1 [Quinoline 30] | 26
C(=C\c1ccc2ccccc2n1)/c1ccc2ccccc2n1 [Quinoline 35] | > 32
COC(=O)/C=C/c1ccc2cc(C)ccc2n1 [Quinoline 27] | 25

Same assay, conditions: Trypanosoma cruzi, TULAHUEN, Peritoneal macrophage, in Mus musculus, 96 h, read-out: T. cruzi (amastigotes) IC50

Molecule | IC50 [µM]
C=Cc1ccc2ccccc2n1 [Quinoline 2, (2-quinolyl)ethylene] | 12
Br/C=C/c1ccc2ccccc2n1 [Quinoline 29, E-1-bromo-2-(2-quinolyl)-ethene] | < 0.5

Same assay, conditions: comment on Table III

Molecule | activity on Trypanosoma cruzi (in words)
CCCCC/C=C/c1ccc2ccccc2n1 [Quinoline 25] | advantageous activity

System: circulating forms of Trypanosoma brucei (S427 strain)
Assay: microbe, parasite or virus in culture
Type: cell-based
Conditions: Trypanosoma brucei, 48 h, read-out: T. brucei IC50
Procedure: d) Tests on the Circulating Forms of Trypanosoma brucei
The circulating forms of Trypanosoma brucei are cultured in MEM medium (minimum essential medium; GIBCO-BRL, No. 072-1100) to which Earle's salts have been added and supplemented with 1 mg/ml of glucose, 2.2 mg/ml of NaHCO3, 10 mM of Hepes, 2 mM of sodium pyruvate, 0.2 mM of 2-mercaptoethanol, 0.1 mM of hypoxanthine and 15% of inactivated horse serum.
The cultures are maintained at 37° C. in 24-well plates in a humid atmosphere (5% CO2-95% air) and the passages are carried out every 2 or 3 days at a density of 10^3 to 10^5 trypomastigotes per ml. The activity of the substituted quinolines is tested in triplicate in 96-well plates in which 10^3 parasites originating from an exponential growth phase are distributed per well, in the presence of the various solutions of substituted quinolines in a final volume of 200 μl. After culturing for 48 hours, the trypanocidal activity is assessed by counting, with a Neubauer cell, the number of live parasites per well.

Molecule | IC50 [µM]
C=Cc1ccc2ccccc2n1 [Quinoline 2, (2-quinolyl)ethylene] | 13
Br/C=C/c1ccc2ccccc2n1 [Quinoline 29, E-1-bromo-2-(2-quinolyl)-ethene] | 1

Same assay, conditions: circulating forms, culturing for 48 hours; read-out: T. brucei IC50

Molecule | IC50 [µM]
CC(O)Cc1ccc2cccc(O)c2n1 (stereo not shown) [Quinoline 22] | 16
BrC(Br)=Cc1ccc2ccccc2n1 [Quinoline 36] | 4
BrC#Cc1ccc2ccccc2n1 [Quinoline 28] | 5
OC/C=C/c1ccc2ccccc2n1 [Quinoline 10] | > 32
CC(=O)Cc1ccc2ccccc2n1 [Quinoline 13] | 10
c1ccc2nc(CCc3ccc4c(c3)OCO4)ccc2c1 [Quinoline 34] | 13
CCCCC/C=C/c1ccc2ccccc2n1 [Quinoline 25] | 4
CCC(O)c1ccc2ccccc2n1 (stereo not shown) [Quinoline 17] | 3
CC(O)Cc1ccc2ccccc2n1 (stereo not shown) [Quinoline 15] | 16
C/C=C/c1ccc2cccc(O)c2n1 [Quinoline 11] | > 32
CC/C=C/c1ccc2ccccc2n1 [Quinoline 6, E-1-(2-quinolyl)butene] | 17
C(=C\c1ccc2ccccc2n1)/c1ccc2ccccc2n1 [Quinoline 35] | 24

Same assay, conditions: comment on Table III

Molecule | activity on Trypanosoma brucei (in words)
CCCCC/C=C/c1ccc2ccccc2n1 [Quinoline 25] | advantageous activity

System: Leishmania infantum (MHOM/FR/91/LEM2259V)
Assay: Balb/c mice infected with visceral leishmaniasis (Leishmania infantum)
Type: in vivo
Conditions: 10 days; quinolines oral 25 mg/kg/day, Glucantime subcutaneous 100 mg/kg/day; n=8
Procedure: b) Tests Carried on Laboratory Animals Infected with Visceral Leishmaniasis (Leishmania infantum): 1/Laboratory Animals and Parasites
The Balb/c mice were infected with Leishmania infantum parasites at the promastigote stage (reference: MHOM/FR/91/LEM2259V), a strain isolated from a patient carrying AIDS. This strain is maintained in Schneider's drosophila culture medium (Gibco, USA) supplemented with 20% of fetal calf serum. The infectious promastigotes are cultured for 7 days and then counted. Each mouse is then infected intravenously with 0.2 ml of culture medium containing 10^7 promastigotes.
Counting of amastigotes forms in the liver and spleen.
After the treatments have been stopped and the animals sacrificed, the viscera, liver and spleen are weighed and collected in a Petri dish. Each organ is mounted several times on a degreased glass slide which, fixed and stained by the May-Grünwald-Giemsa technique, makes it possible to determine the number of amastigote forms per 500 nucleated cells.
The results are expressed in Table VI.

Molecule | Number of parasites in the liver per gram | Number of parasites in the spleen per gram
C#Cc1ccc2ccccc2n1 [Quinoline 1, 1-(2-quinolyl)acetylene] | 1.8 × 10^7 c per gram | 2.2 × 10^6 b per gram
meglumine antimoniate [Glucantime, reference compound] | 1.6 × 10^7 a per gram | 4.4 × 10^6 per gram

Same assay, conditions: 10 days; quinolines oral 25 mg/kg/day, Glucantime subcutaneous 100 mg/kg/day; versus without treatment

Molecule | % reduction in the number of parasites in the liver [%] | % reduction in the number of parasites in the spleen
C#Cc1ccc2ccccc2n1 [Quinoline 1, 1-(2-quinolyl)acetylene] | −60.0 | −47.6%
meglumine antimoniate [Glucantime, reference compound] | −65.3 | +6.0%

System: Leishmania amazonensis (IFLA/BR/67/PH8)
Assay: not given
Conditions: 15 days; quinolines oral 25 mg/kg/day, Glucantime subcutaneous 100 mg/kg (28 mg Sbv/kg); n=8

Molecule | Mean of the number of parasites in the lesion per gram | Weight of lesions (mean ± standard deviation) [g]
meglumine antimoniate [Glucantime, reference compound] | 7.2 × 10^5 per gram | 0.012 ± 0.010
CC/C=C/c1ccc2ccccc2n1 [Quinoline 6, E-1-(2-quinolyl)butene] | 6.9 × 10^6 per gram | 0.101 ± 0.100

Same assay, conditions: 15 days; quinolines oral 25 mg/kg/day, Glucantime subcutaneous 100 mg/kg (28 mg Sbv/kg); versus untreated controls

Molecule | % reduction in the number of parasites in the lesion [%]
meglumine antimoniate [Glucantime, reference compound] | −97
CC/C=C/c1ccc2ccccc2n1 [Quinoline 6, E-1-(2-quinolyl)butene] | −73
